Consider 33 compounds from US8048862B2, “Macrocyclic inhibitors of hepatitis C virus replication” (priority 2008, dated 2011).

The target of one test is NS3/NS4 complexes (Hepatitis C virus genotype 1a, UniProt P27958). Kind of test: NS3/NS4 inhibition activity (IC50). Format: biochemical. The following applies: IC50, Table 3. From the text: NS3-NS4 inhibition activity can be determined using known assay methods. For example, NS3/NS4 complexes may be formed and inhibitory concentrations of test compounds determined as described in U.S. Patent Application Publication Number 2007/0054842 paragraph numbers 1497-1509, which is incorporated herein by reference in its entirety. Similarly, hepatitis C replicon EC50 may be determined using known assay methods such as described in U.S. Patent Application Publication Number 2007/0054842 paragraph numbers 1510-1515. Assays may be conducted at ambient temperature (23° C.) in assay buffer containing 50 mM Tris-HCl, pH 7.5, 15% glycerol, 0.6 mM Lauryldimethylamine Oxide (LDAO), 25 μM NS4A peptide, and 10 mM Dithiothreitol (DTT).
Chain of NS3/NS4 complexes (P27958 1027-1657): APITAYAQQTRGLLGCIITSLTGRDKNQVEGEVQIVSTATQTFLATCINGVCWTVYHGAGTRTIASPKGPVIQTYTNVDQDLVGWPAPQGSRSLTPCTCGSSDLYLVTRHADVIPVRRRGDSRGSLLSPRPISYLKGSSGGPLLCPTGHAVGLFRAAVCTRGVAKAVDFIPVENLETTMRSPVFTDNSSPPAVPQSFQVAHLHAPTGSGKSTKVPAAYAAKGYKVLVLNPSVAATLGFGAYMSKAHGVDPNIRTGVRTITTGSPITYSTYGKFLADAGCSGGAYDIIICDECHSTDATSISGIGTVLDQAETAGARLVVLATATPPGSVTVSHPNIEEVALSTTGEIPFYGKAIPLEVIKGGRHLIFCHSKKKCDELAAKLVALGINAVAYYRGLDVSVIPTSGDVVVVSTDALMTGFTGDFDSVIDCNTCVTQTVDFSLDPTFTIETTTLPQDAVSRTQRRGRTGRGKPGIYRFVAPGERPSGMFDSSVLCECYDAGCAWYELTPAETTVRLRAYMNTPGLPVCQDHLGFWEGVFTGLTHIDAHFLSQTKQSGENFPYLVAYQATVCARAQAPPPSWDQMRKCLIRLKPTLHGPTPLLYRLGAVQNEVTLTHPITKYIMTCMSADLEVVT
Chain of NS3/NS4 complexes (P27958 1658-1711): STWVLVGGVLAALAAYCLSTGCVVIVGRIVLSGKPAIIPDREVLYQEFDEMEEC
With `CC(C)(C)OC(=O)N[C@H]1CCCCC/C=C\[C@@H]2C[C@@]2(C(=O)N2CCC[C@H]2C(=O)NCc2ccccc2)NC(=O)[C@@H]2C[C@@H](OC(=O)N3Cc4cccc(F)c4C3)CN2C1=O` [Compound 1054], the IC50 was over 100 nM.

`CC(C)(C)OC(=O)N[C@H]1CCCCC/C=C\[C@@H]2C[C@@]2(C(=O)NCC(=O)NCc2ccccc2)NC(=O)[C@@H]2C[C@@H](O)CN2C1=O` [Compound 1055] returned an IC50 of over 100 nM.

Compound `CC(C)(C)OC(=O)N[C@H]1CCCCC/C=C\[C@@H]2C[C@@]2(C(=O)N2CCC[C@H]2C(=O)NCc2ccccc2)NC(=O)[C@@H]2C[C@@H](O)CN2C1=O` [Compound 1056] came in with an IC50 of over 100 nM.

In turn, `CC(=O)O[C@@H]1C[C@H]2C(=O)N[C@]3(C(=O)NCC(=O)NCc4ccccc4)C[C@H]3/C=C\CCCCC[C@H](NC(=O)OC(C)(C)C)C(=O)N2C1` [Compound 1060] had an IC50 of over 100 nM. In the case of `CO[C@@H]1C[C@H]2C(=O)N[C@]3(C(=O)NCC(=O)NCc4ccccc4)C[C@H]3/C=C\CCCCC[C@H](NC(=O)OC(C)(C)C)C(=O)N2C1` [Compound 1063], the IC50 was over 100 nM.

In turn, `CO[C@@H]1C[C@H]2C(=O)N[C@]3(C(=O)N4CCC[C@H]4C(=O)NCc4ccccc4)C[C@H]3/C=C\CCCCC[C@H](NC(=O)OC(C)(C)C)C(=O)N2C1` [Compound 1064] returned an IC50 of over 100 nM. Regarding `CN(C)C(=O)O[C@@H]1C[C@H]2C(=O)N[C@]3(C(=O)NCC(=O)NCc4ccccc4)C[C@H]3/C=C\CCCCC[C@H](NC(=O)OC(C)(C)C)C(=O)N2C1` [Compound 1066], the IC50 is over 100 nM. Still for that read-out and setting: as for `CN(C)C(=O)O[C@@H]1C[C@H]2C(=O)N[C@]3(C(=O)N4CCC[C@H]4C(=O)NCc4ccccc4)C[C@H]3/C=C\CCCCC[C@H](NC(=O)OC(C)(C)C)C(=O)N2C1` [Compound 1068], the figure is over 100 nM.

For the compound `CC(C)(C)OC(=O)N[C@H]1CCCCC/C=C\[C@@H]2C[C@@]2(C(=O)N2CCC[C@@H]2C(=O)NCc2ccccc2)NC(=O)[C@@H]2C[C@@H](O)CN2C1=O` [Compound 1087], the IC50 is over 100 nM.

Staying with this test, now noted: Table 2, read-out: IC50.
For `O=C1N[C@]2(C(=O)O)C[C@H]2/C=C\CCCCC[C@H](Nc2cccc(F)c2)C(=O)N2C[C@H](Oc3nc4ccccc4s3)C[C@@H]12` [Compound 123], the IC50 lay in the range of 75 to 500 nM. In the case of `COc1cccc(N[C@H]2CCCCC/C=C\[C@@H]3C[C@@]3(C(=O)O)NC(=O)[C@@H]3C[C@@H](Oc4nc5ccccc5s4)CN3C2=O)c1` [Compound 132], the IC50 is 75 to 500 nM. As to `O=C1N[C@]2(C(=O)O)C[C@H]2/C=C\CCCCC[C@H](Nc2cc(F)cc(C(F)(F)F)c2)C(=O)N2C[C@H](Oc3nc4ccccc4s3)C[C@@H]12` [Compound 321], the concentration for half-maximal inhibition (IC50) fell in the range of 10 to 75 nM. With `O=C1N[C@]2(C(=O)O)C[C@H]2/C=C\CCCCC[C@H](Nc2cc(F)cc(C(F)(F)F)c2)C(=O)N2C[C@H](Oc3nc4ccc(Cl)cc4s3)C[C@@H]12` [Compound 322], the IC50 was in the range of 10 to 75 nM. On the same count and under the same terms, the same measure for `Cc1ccc2nc(O[C@@H]3C[C@H]4C(=O)N[C@]5(C(=O)O)C[C@H]5/C=C\CCCCC[C@H](Nc5cc(F)cc(C(F)(F)F)c5)C(=O)N4C3)sc2c1` [Compound 323]: under 10 nM.

Take `O=C1N[C@]2(C(=O)O)C[C@H]2/C=C\CCCCC[C@H](Nc2cc(F)cc(F)c2)C(=O)N2C[C@H](Oc3nc4ccccc4s3)C[C@@H]12` [Compound 324]: the half-inhibitory concentration (IC50) was in the range of 10 to 75 nM. On to `O=C1N[C@]2(C(=O)O)C[C@H]2/C=C\CCCCC[C@H](Nc2ccc3ccccc3c2)C(=O)N2C[C@H](Oc3nc4ccccc4s3)C[C@@H]12` [Compound 327], for which the IC50 was in the range of 10 to 75 nM. `O=C1N[C@]2(C(=O)O)C[C@H]2/C=C\CCCCC[C@H](Nc2ccc(C(F)(F)F)cc2)C(=O)N2C[C@H](Oc3nc4ccccc4s3)C[C@@H]12` [Compound 329]: the IC50 was in the range of 75 to 500 nM. For `O=C1N[C@]2(C(=O)O)C[C@H]2/C=C\CCCCC[C@H](Nc2ccc(F)c(F)c2)C(=O)N2C[C@H](Oc3nc4ccccc4s3)C[C@@H]12` [Compound 343], the IC50 lay within 75 to 500 nM. Take `O=C1N[C@]2(C(=O)O)C[C@H]2/C=C\CCCCC[C@H](Nc2cc(Cl)cc(Cl)c2)C(=O)N2C[C@H](Oc3nc4ccccc4s3)C[C@@H]12` [Compound 344]: the IC50 lay in the range of 75 to 500 nM.

Consider `COc1ccc2c(O[C@@H]3C[C@H]4C(=O)N[C@]5(C(=O)NS(=O)(=O)C6(C)CC6)C[C@H]5/C=C\CCCCC[C@H](Nc5cc(F)cc(C(F)(F)F)c5)C(=O)N4C3)cc(-c3ccccc3)nc2c1` [Compound 357], for which the IC50 fell in the range of 10 to 75 nM.

For `COc1ccc2c(O[C@@H]3C[C@H]4C(=O)N[C@]5(C(=O)O)C[C@H]5/C=C\CCCCC[C@H](Nc5cccc(F)c5)C(=O)N4C3)cc(-c3nc(C(C)C)cs3)nc2c1C` [Compound 448], the IC50 is under 10 nM.

The same test, now with this note: Table 3, read-out: IC50.
On to `CC(C)(C)OC(=O)N[C@H]1CCCCC/C=C\[C@@H]2C[C@@]2(C(=O)NOc2ccccc2)NC(=O)[C@@H]2C[C@@H](Oc3nc4ccccc4s3)CN2C1=O` [Compound 1020], for which the IC50 is 10 to 100 nM.

With `CC(C)(C)OC(=O)N[C@H]1CCCCC/C=C\[C@@H]2C[C@@]2(C(=O)NOc2ccccc2)NC(=O)[C@@H]2C[C@@H](Oc3nc4ccc(F)cc4s3)CN2C1=O` [Compound 1021], the IC50 was 10 to 100 nM.

Regarding `CC(C)(C)OC(=O)N[C@H]1CCCCC/C=C\[C@@H]2C[C@@]2(C(=O)NOc2ccccc2)NC(=O)[C@@H]2C[C@@H](Oc3nc4ccc(Br)cc4s3)CN2C1=O` [Compound 1022], the IC50 was over 100 nM.

In the case of `CC(C)(C)OC(=O)N[C@H]1CCCCC/C=C\[C@@H]2C[C@@]2(C(=O)NOc2ccccc2)NC(=O)[C@@H]2C[C@@H](Oc3nc4ccc(Cl)cc4s3)CN2C1=O` [Compound 1023], the IC50 is over 100 nM. Turning to `Cc1ccc2nc(O[C@@H]3C[C@H]4C(=O)N[C@]5(C(=O)NOc6ccccc6)C[C@H]5/C=C\CCCCC[C@H](NC(=O)OC(C)(C)C)C(=O)N4C3)sc2c1` [Compound 1024], the IC50 is over 100 nM. On the same count and under the same terms, as for `COc1ccc2nc(O[C@@H]3C[C@H]4C(=O)N[C@]5(C(=O)NOc6ccccc6)C[C@H]5/C=C\CCCCC[C@H](NC(=O)OC(C)(C)C)C(=O)N4C3)sc2c1` [Compound 1025], the figure is over 100 nM.

With `CC(C)(C)OC(=O)N[C@H]1CCCCC/C=C\[C@@H]2C[C@@]2(C(=O)O)NC(=O)[C@@H]2C[C@@H](Oc3nc4ccc(Cl)cc4o3)CN2C1=O` [Compound 1041], the IC50 is over 100 nM. Still for that read-out and setting: the same measure for `CC(C)(C)OC(=O)N[C@H]1CCCCC/C=C\[C@@H]2C[C@@]2(C(=O)O)NC(=O)[C@@H]2C[C@@H](Oc3nc4cccc(F)c4o3)CN2C1=O` [Compound 1042]: 10 to 100 nM; for `CC(C)(C)OC(=O)N[C@H]1CCCCC/C=C\[C@@H]2C[C@@]2(C(=O)O)NC(=O)[C@@H]2C[C@@H](Oc3nc4cc(F)ccc4o3)CN2C1=O` [Compound 1043]: 10 to 100 nM. Still for that read-out and setting: as for `Cc1ccc2oc(O[C@@H]3C[C@H]4C(=O)N[C@]5(C(=O)O)C[C@H]5/C=C\CCCCC[C@H](NC(=O)OC(C)(C)C)C(=O)N4C3)nc2c1` [Compound 1044], the figure is over 100 nM; as for `CC(=O)O[C@@H]1C[C@H]2C(=O)N[C@]3(C(=O)NCCC(=O)NCc4ccccc4)C[C@H]3/C=C\CCCCC[C@H](NC(=O)OC(C)(C)C)C(=O)N2C1` [Compound 1059], over 100 nM. Same read-out and setting: as for `CN(C)C(=O)O[C@@H]1C[C@H]2C(=O)N[C@]3(C(=O)NCCC(=O)NCc4ccccc4)C[C@H]3/C=C\CCCCC[C@H](NC(=O)OC(C)(C)C)C(=O)N2C1` [Compound 1067], the figure is over 100 nM.
